Source: patent US20250100993A1, “2-SUBSTITUTED THIAZOLE HSD17B13 INHIBITORS AND USES THEREOF” (Inipharm, Inc., priority 2022, published 2025)

Target: HSD17B13 (Homo sapiens (Human), UniProt Q7Z5P4)
Assay: LC/MS estrone detection assay for HSD17B13 activity (estradiol to estrone)
Assay type: biochemical
Details: estradiol substrate, LCMS; read-out: HSD17B13 Inhibition_Estradiol Substrate_LCMS: Ki
Experimental: The liquid chromatography/mass spectrometry (LC/MS) estrone detection assay monitors the conversion of estradiol to estrone by HSD17B13. This assay was undertaken in a 96 wp format (Eppendorf deep well Plate 96/500) in an 80 μl reaction volume containing: 4 μM of Estradiol (E2; Cayman; Ser. No. 10/006,315), 6 mM NAD+(Sigma; #N0623) and 30 nM HSD17B13 enzyme (in-house; E. coli expressed His-tagged, purified, soluble protein) in a reaction containing 1M potassium phosphate buffer pH 7.4, with 0.5% vehicle (DMSO). Reactions were incubated for 2 hours at 26.5° C., and estradiol (E2) conversion to estrone (E1) was quantitated by LC-MS/MS based analyte detection for both E2 and E1 using LCMS grade reagents.
Reactions were terminated by the addition of two volumes of acetonitrile (MeCN; LCMS grade; CAS #75/05/8) containing deuterated (D4)-E1 used as internal standard (Clear Synth; #CS-T-54273; 500 ng/mL final concentration). Samples were applied to pre-prepared Bond Elut-C18 extraction cartridges (3 mL; Agilent; Ser. No. 12/102,028), washed and eluted in MeCN. Eluates were dried under nitrogen and re-suspended in 60% methanol (LCMS grade methanol; CAS #67/56/1) before submission for analysis. Aqueous linearity for E2 and E1 were included for quantification.
Analysis of samples was undertaken on a XBridge BEH C18 column (Waters; #186003033) using 0.1% Diethyl Amine in MeCN (mobile phase A; DEA CAS #109-89-7) and 0.1% Diethyl Amine in milli-Q water (mobile phase B) in a 3 min gradient allowing 25% B. Analytes were detected in negative mode using MRM analysis, with E2 having a RT of 1.85 min and E1 having a RT of 2 min. Activity of the enzyme, in the absence of NAD+, was used to evaluate specificity of conversion. Enzyme activity in the presence of test samples was expressed as a percentage of the uninhibited enzyme activity, and plotted versus inhibitor concentration. Non-linear regression was performed using a four-parameter logistic model and GraphPad Prism software (GraphPad Software, La Jolla, CA). All assessments were undertaken in duplicate evaluations and pooled during extraction process and subsequently injected as duplicates for LC-MS/MS analysis.

HSD17B13, sequence (Q7Z5P4 20-300): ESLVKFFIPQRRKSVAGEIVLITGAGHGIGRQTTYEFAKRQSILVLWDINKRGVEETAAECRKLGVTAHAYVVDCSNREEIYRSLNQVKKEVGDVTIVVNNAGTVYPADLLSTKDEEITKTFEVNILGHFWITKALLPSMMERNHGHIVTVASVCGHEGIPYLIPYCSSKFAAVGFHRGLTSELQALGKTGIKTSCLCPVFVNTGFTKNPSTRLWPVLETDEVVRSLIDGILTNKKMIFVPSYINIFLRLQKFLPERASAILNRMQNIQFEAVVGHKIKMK

| SMILES | Ki [µM] |
| --- | --- |
| O=C(Nc1sc(N2CCS(=O)(=O)CC2)nc1C(=O)NCc1ccccc1C(F)(F)F)c1cc(Cl)c(O)c(Cl)c1 [Example 79, 5-(3,5-dichloro-4-hydroxybenzamido)-2-(1,1-dioxidothiomorpholino)-N-(2-(trifluoromethyl)benzyl)thiazole-4-carboxamide] | 0.1 to 0.5 |
| O=C(Nc1sc(N2CCOCC2)nc1C(=O)NCc1ccccc1C(F)(F)F)c1cc(Cl)c(O)c(Cl)n1 [Example 80, 5-(4,6-dichloro-5-hydroxypicolinamido)-2-morpholino-N-(2-(trifluoromethyl)benzyl)thiazole-4-carboxamide] | 0.1 to 0.5 |
| O=C(Nc1sc(C2CCOCC2)nc1C(=O)NCc1ccccc1C(F)(F)F)c1cc(Cl)c(O)c(Cl)n1 [Example 81, 5-(4,6-dichloro-5-hydroxypicolinamido)-2-(tetrahydro-2H-pyran-4-yl)-N-(2-(trifluoromethyl)benzyl)thiazole-4-carboxamide] | 0.1 to 0.5 |
| O=C(Nc1sc(C2CCOCC2)nc1C(=O)NCc1ccccc1C(F)(F)F)c1cc(Cl)c(O)c(Cl)c1 [Example 82, 5-(3,5-dichloro-4-hydroxybenzamido)-2-(tetrahydro-2H-pyran-4-yl)-N-(2-(trifluoromethyl)benzyl)thiazole-4-carboxamide] | 0.1 to 0.5 |
| O=C(Nc1sc(C2CCCCC2)nc1C(=O)NCc1ccccc1C(F)(F)F)c1cc(Cl)c(O)c(Cl)c1 [Example 83] | ≤ 0.05 |
| O=C(Nc1sc(C2CCCCC2)nc1C(=O)NCc1ccccc1C(F)(F)F)c1cc(Cl)c(O)c(Cl)n1 [Example 84] | ≤ 0.05 |
| CN1CC=C(c2nc(C(=O)NCc3ccccc3C(F)(F)F)c(NC(=O)c3cc(Cl)c(O)c(Cl)n3)s2)CC1 [Example 85, 5-(4,6-dichloro-5-hydroxypicolinamido)-2-(1-methyl-1,2,3,6-tetrahydropyridin-4-yl)-N-(2-(trifluoromethyl)benzyl) thiazole-4-carboxamide] | 0.1 to 0.5 |
| CN1CCC(c2nc(C(=O)NCc3ccccc3C(F)(F)F)c(NC(=O)c3cc(Cl)c(O)c(Cl)n3)s2)CC1 [Example 86, 5-(4,6-dichloro-5-hydroxypicolinamido)-2-(1-methylpiperidin-4-yl)-N-(2-(trifluoromethyl)benzyl)thiazole-4-carboxamide] | 0.1 to 0.5 |
| CN1CCC(c2nc(C(=O)NCc3ccccc3C(F)(F)F)c(NC(=O)c3cc(Cl)c(O)c(Cl)c3)s2)CC1 [Example 87] | 0.1 to 0.5 |
| O=C(Nc1sc(-c2cc(CN3CCCC3)ccc2F)nc1C(=O)NCc1ccccc1C(F)(F)F)c1cc(F)c(O)c(Cl)c1 [Example 105, 5-(3-chloro-5-fluoro-4-hydroxybenzamido)-2-(2-fluoro-5-(pyrrolidin-1-ylmethyl)phenyl)-N-(2-(trifluoromethyl)benzyl)thiazole-4-carboxamide] | 0.05 to 0.1 |
| O=C(Nc1sc(-c2ccccc2F)nc1C(=O)NCC12CC(C1)C2)c1cc(F)c(O)c(Cl)c1 [Example 106, N-(bicyclo[1.1.1]pentan-1-ylmethyl)-5-(3-chloro-5-fluoro-4-hydroxybenzamido)-2-(2-fluorophenyl)thiazole-4-carboxamide] | ≤ 0.05 |
| O=C(Nc1sc(-c2ccccc2F)nc1C(=O)NCc1ccccc1C(F)(F)F)c1cc(Cl)c(O)c(F)n1 [Example 107, 5-(4-chloro-6-fluoro-5-hydroxypicolinamido)-2-(2-fluorophenyl)-N-(2-(trifluoromethyl)benzyl)thiazole-4-carboxamide] | ≤ 0.05 |
